# According to patent publication US4087461A, “Anti-androgenic steroids” (The Johns Hopkins University, priority 1977, dated 1978):
# Key:
# [1] = target: Δ^5 -3-ketosteroid isomerase (Comamonas testosteroni, UniProt P00947); experiment: inhibition of isomerase by allenic ketones, pseudo first order conditions; assay type: biochemical, Pseudomonas testosteroni; conditions: for half life for loss of enzyme activity / isomerisation of the allenic ketone under assay conditions: allenic ketone 200 μM, 1 mM phosphate buffer, pH = 7; for isomerisation of the allenic ketone under assay conditions: isomerase
# Sequence of Δ^5 -3-ketosteroid isomerase (P00947 whole entry, stated change not applied): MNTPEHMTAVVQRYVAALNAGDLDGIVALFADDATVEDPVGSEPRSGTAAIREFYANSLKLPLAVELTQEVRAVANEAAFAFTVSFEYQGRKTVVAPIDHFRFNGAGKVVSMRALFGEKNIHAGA
# Description: As noted above, the acetylenic compounds of the invention, e.g. estryne and pregnyne, are converted into the corresponding conjugated allenic ketones which then react irreversibly with the enzyme. These allenic ketones are also novel and constitute an important embodiment of the invention. The allenic ketones derived from estryne are 6β(H)-5,10-secoestra-4,5-diene-3,10,17-trione and 6α(H)-5,10-secoestra-4,5-diene-3,10,17-trione. These allenic ketones have been tested as inhibitors of isomerase and have been found effective in this regard.
# [2] = system: ventral prostate and dorsal lateral prostate; experiment: effects of 6β(H)-allenic ketone on intact male Sprague-Dawley rats: body and prostate weights; assay type: in vivo; conditions: 0.6mg in propylene glycol (0.2ml) daily for 7 days, i.p.
# Method: Effects of 6β(H)-5,10-Seco-19-norestra-4,5-diene-3,10,17-trione on intact male Sprague-Dawley rats
# The compound (0.6mg) dissolved in propylene glycol (0.2ml) was administered daily for 7 days by the intraperitoneal route. The experimental group and control group each comprised 5 animals; and weghts of animals as well the wet tissue weights of ventral prostate and dorsal lateral prostate are averaged for each group.
# immature uterus = experiment: study of estrogenic activity (uterine weight of immature mice); conditions: same dosage schedule as estryne
# Method: The animals were housed in a temperature controlled room under a constant lighting schedule and maintained on a diet of Charles River Rat Formula and water ad libitum. The diet of the hypophy-sectomized animals was supplemented with organges.
# On the fourth day the uteri were removed and weighed.
# Thus, immature female mice received estryne at doses up to a maximum of 100 μg total dose over three days, and the wet weight of the uteri were determined.
# [3] = system: endogenous androgen biosynthesis; experiment: study in intact male rats: weights of sex accessory tissue and other organs; assay type: in vivo, male Sprague-Dawley rats
# Method: Studies with intact male Sprague-Dawley rats (300g body weight) are illustrated for compounds (1) and (2).
# Similarly, compound (2), […] rats at a dosage of 20mg per kilo for 7 days produced 20% reduction in weight of the ventral prostate and 28% reduction of the dorsal lateral prostate.
# The following data illustrates the inhibiting effect of estryne and pregnyne on Δ^5 -3-ketosteroid isomerase (EC 5.3.3.1) as evidenced by a depression of the wet weight of the sex accessory tissue in the mature male rat treated with the estryne and pregnyne.
# A. Male rats were used to assess the effect of estryne on endogenous androgen biosynthesis at varying doses (1-20 mg/kg body weight). […] On the eighth day the animals were sacrificed and the ventral prostate, dorsal lateral prostate, seminal vesicles, testes, kidneys, and adrenals were removed and weighed. Samples of each tissue were preserved in 10% buffered formalin for histological examination.
# B. Male rats were treated with 19-norpregnyne by a regimen exactly as described for the estryne.
# [4] = listed as 6β(H)-5,10-secoestra-4,5-diene-2,10,17-trione
smiles,measurement,setting,value
"C[C@]12CC[C@@H]3C(=O)CCC(=O)C=C=CC[C@H]3[C@@H]1CCC2=O [6α(H)-5,10-secoestra-4,5-diene-3,10,17-trione]",half life for loss of enzyme activity,[1],11 min
same,isomerisation of the allenic ketone under assay conditions,[1],partially converted to the β-isomer
"C[C@]12CC[C@@H]3C(=O)CCC(=O)C=C=CC[C@H]3[C@@H]1CCC2=O [6β(H)-5,10-secoestra-4,5-diene-3,10,17-trione]",Wt. of Dorsal Lateral Prostate,[2]; control 299 mg,235 mg
same,Wt. of Ventral Prostate,[2]; control 574 mg,488 mg
same,Wt. of Animals,[2]; control 388 g,382 g
same,half life for loss of enzyme activity,[1]; [4],9 min
same,inhibition of isomerase,[1]; in words,effective
same,isomerisation of the allenic ketone under assay conditions,[1]; [4],partially converted to the 6α isomer
C[C@]12CC[C@@H]3c4ccc(O)cc4CC[C@H]3[C@@H]1CC[C@@H]2O [17β-estradiol],dose giving maximum stimulation (uterine weight),immature uterus,about 8 μg
same,lowest dose giving a positive response (uterine weight),"immature uterus; ""as low as""",0.67 µg
"C[C@]12CC[C@@H]3C(=O)CCC(=O)CC#CC[C@H]3[C@@H]1CCC2=O [Compound 5, 5,10-secoestr-5-yne-3,10,17-trione]",reduction in weight of the ventral prostate,"[3]; 13mg per kilo per day, s.c. in sesame oil, 7 days",30%
same,Average Weight of Ventral Prostate,"[3]; 13mg/Kg (so in the source) in propylene glycol (0.2ml) per day for 7 days, i.p., control 421 mg",302 mg
same,Average Weight of Ventral Prostate,"[3]; 13mg/Kg in sesame oil (0.2ml) per day for 7 days, s.c., control 238 mg",167 mg
